Source: publication PMC8151276, “An Integrated Approach toward NanoBRET Tracers for Analysis of GPCR Ligand Engagement” (Molecules, 2021)

Molecular target: T1, CX3CR1 (Homo sapiens, UniProt P49238)
T1 construct: purchased Promega (in-house HiBiT-GPCR construct library, NanoBRET)
T1 sequence (P49238 1-355): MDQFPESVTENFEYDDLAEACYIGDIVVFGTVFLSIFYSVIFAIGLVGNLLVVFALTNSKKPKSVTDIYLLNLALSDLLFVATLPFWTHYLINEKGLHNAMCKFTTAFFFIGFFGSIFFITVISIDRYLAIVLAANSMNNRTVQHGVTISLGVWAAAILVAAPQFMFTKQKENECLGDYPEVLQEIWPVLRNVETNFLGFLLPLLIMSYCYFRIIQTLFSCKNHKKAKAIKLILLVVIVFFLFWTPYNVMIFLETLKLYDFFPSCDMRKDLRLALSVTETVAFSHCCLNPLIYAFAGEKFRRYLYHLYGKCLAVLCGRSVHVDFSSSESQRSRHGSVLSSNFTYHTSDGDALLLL
Test: NanoBRET screen HiBiT-CX3CR1 in HEK293
Format: binding
Description: Each tracer candidate was screened across the entire library of HiBiT-GPCR constructs using NanoBRET as the detection modality. As depicted in Figure 4A, the specificity of interactions was evaluated through decrease in BRET due to competitive displacement of a bound tracer by excess parental compound. Each tracer was analyzed for binding to each HiBiT-GPCR fusion in the absence and in the presence of competing parental compound. Briefly, HEK293 cells were transfected with HiBiT-GPCR constructs diluted into promoterless DNA to reduce expression and maximize translocation to the cell surface. Each tracer candidate was then screened at concentrations of 1 μM and 0.1 μM across cells expressing these fusions. Cells were treated for 1.5 h with tracer either alone or in the presence of 20 μM competing parental compound (i.e., control). BRET was measured upon addition of purified LgBiT and subsequent complementation with HiBiT genetically fused to a GPCR. The specificity of interactions was assessed through a decrease in BRET signal due to competitive displacement of the bound tracer. To further gauge the robustness of these interactions, the fold response over the control (i.e., BRETtracer/BRETcontrol) was calculated. We chose a 1.5-fold response, which translates to ≥7-fold signal over noise as the minimal threshold required to score an interaction as positive. […]. Below we highlight the screening results obtained for our exemplary fluorescent tracers based on Clozapine, Amitriptyline and AZD1283.
HiBiT-GPCR DNA constructs were diluted in 10 mM Tris pH 8 to a final concentration of 0.01 μg/μL, arrayed in 96-well plates and stored at −20 °C. For transfection, HEK293 cells were suspended in Opti-MEM (without phenol red) supplemented with 2% fetal bovine serum (Seradigm) and 100 units/mL penicillin–streptomycin (Gibco) at a final concentration of 220,000 cells/mL and dispensed into white 96-well plates at 90 μL/well. Subsequent transfections and screens were carried using an Agilent Bravo Automated Liquid Handling Platform. First, the 96-well HiBiT DNA arrays were diluted 25-fold in Opti-MEM (without serum or phenol red) to a final concentration of 0.0004 μg/μL and 20 μL of the diluted DNAs were transferred into new 96-well plates. Next, promoterless carrier DNA (1 μg/μL) was diluted 25-fold (0.04 μg/μL) and then dispensed into the diluted arrays at 20 μL/well. Following brief mixing, Viafect transfection reagent (Promega) diluted 16-fold into Opti-MEM was dispensed into the plates at 40 μL/well. After mixing by pipetting, plates were incubated for 10 min on the pipetting station deck. The DNA-transfection reagent complexes were then added to plates containing cells. To facilitate the screen, 10 μL of DNA-transfection reagent complexes were added in duplicates to the top 4 and bottom 4 rows, resulting in two identical 48-well arrays per plate. Plates with transfected cells were incubated for 18–20 h at 37 °C/5% CO2. A screen of each tracer across the entire library using two different concentrations requires duplicate plates of transfected cells. Depending on the number of tracers being screened, transfections can be scaled up using the same ratios. The next day, for each tracer, four 20× screening solutions in tracer dilution buffer (Promega) were prepared: two duplicates at final concentration of 20 μM and two duplicates at a final concentration of 2 μM. A competing unmodified compound was added to one of each duplicate at a final concentration of 400 μM. The four resulting solutions were diluted 4-fold in Opti-MEM without serum or phenol red to generate 5× solutions (5 µM and 0.5 µM tracer +/− 100 μM competing compound). To screen the library, a BioTek MultiFlo FX liquid dispenser was used to dispense 22.5 µL of tracer solution to the top 4 rows and 22.5 µL tracer + competing compound solution to the 4 bottom rows. Plates were briefly mixed on an orbital shaker and incubated for 1.5 h at room temperature. […]

| Compound | NanoBRET Fold Response (CX3CR1, tracer 0.1μM) | NanoBRET Fold Response (CX3CR1, tracer 1μM) | also measured |
| --- | --- | --- | --- |
| CN1CCN(C2=Nc3cc(Cl)ccc3Nc3ccc(CNC(=O)CCOCCOCCOCCOCCNC(=O)CCc4ccc5n4[B-](F)(F)[N+]4=C(c6ccc[nH]6)C=CC4=C5)cc32)CC1 [Clozapine-b-2-NB590] | – | – | NanoBRET Fold Response (CX3CR1, 0.1μM tracer): 0.98 |
| CN(C)CCC=C1c2ccccc2CCc2ccc(C(=O)NCCNC(=O)CCOCCOCCOCCOCCNC(=O)CCc3ccc4n3[B-](F)(F)[N+]3=C(c5ccc[nH]5)C=CC3=C4)cc21 [Amitriptyline-b-2-NB590] | – | – | NanoBRET Fold Response (tracer at 0.1μM, listed as amitriptyline-b-2-NB590): 1.14; NanoBRET Fold Response (tracer at 1μM, listed as amitriptyline-b-2-NB590): 0.86 |
| CCOC(=O)c1cc(C#N)c(N2CCC(C(=O)NS(=O)(=O)Cc3ccccc3/C=C/C(=O)NCCNC(=O)CCc3ccc4n3[B-](F)(F)[N+]3=C(c5ccc[nH]5)C=CC3=C4)CC2)nc1C [AZD1283-1-NB590] | – | – | NanoBRET Fold Response (CX3CR1, 0.1μM): 1.09; NanoBRET Fold Response (CX3CR1, 1μM): 1.08 |
| CC(C)N(CC[C@H](c1ccccc1)c1cc(CCNC(=O)CCOCCOCCOCCOCCNC(=O)CCc2ccc3n2[B-](F)(F)[N+]2=C(c4ccc[nH]4)C=CC2=C3)ccc1O)C(C)C [Tolterodine-2-NB590] | 1.32 | 1.06 | – |
| CC(C)N(CC[C@H](c1ccccc1)c1cc(CCNC(=O)c2ccc(CNC(=O)CCc3ccc4n3[B-](F)(F)[N+]3=C(c5ccc[nH]5)C=CC3=C4)cc2)ccc1O)C(C)C [Tolterodine-BZ-NB590] | 0.94 | 0.98 | – |
| O=C(CCOCCOCCOCCOCCNC(=O)CCc1ccc2n1[B-](F)(F)[N+]1=C(c3ccc[nH]3)C=CC1=C2)NCCCN1CCN(C2=Nc3ccccc3Oc3ccc(Cl)cc32)CC1 [Loxapine-a-2-NB590] | 1.05 | 0.91 | – |
| CN1CCN(C2=Nc3cc(Cl)ccc3N(CC(=O)NCCOCCOCCOCCOCCNC(=O)CCc3ccc4n3[B-](F)(F)[N+]3=C(c5ccc[nH]5)C=CC3=C4)c3ccccc32)CC1 [Clozapine-c-2-NB590] | – | – | NanoBRET Fold Response (CX3CR1, 0.1μM tracer): 0.95; NanoBRET Fold Response (CX3CR1, 1μM tracer): 0.92 |
| CN(C)CCC=C1c2ccccc2CCc2ccc(C(=O)NCCNC(=O)CCOCCOCCOCCOCCNC(=O)CCc3ccc4n3[B-](F)(F)[N+]3=C(c5ccc[nH]5)C=CC3=C4)cc21 [Amitriptyline-a-2-NB590] | – | – | NanoBRET Fold Response (tracer at 0.1μM): 1.07; NanoBRET Fold Response (tracer at 1μM): 0.99 |
| Cc1nc2n(c(=O)c1CCN1CCC(c3noc4cc(F)ccc34)CC1)CCCC2OC(=O)NCCOCCOCCOCCOCCNC(=O)CCc1ccc2n1[B-](F)(F)[N+]1=C(c3ccc[nH]3)C=CC1=C2 (stereo not shown) [Risperidone-2-NB590] | 1.06 | 1.02 | – |
| COc1ccc2[nH]c(-c3ccc(CNC(=O)CCOCCOCCOCCOCCNC(=O)CCc4ccc5n4[B-](F)(F)[N+]4=C(c6ccc[nH]6)C=CC4=C5)cc3)c(CCNC(C)=O)c2n1 [AzomelatoninICO9-2-NB590] | – | – | NanoBRET Fold Response (0.1μM tracer): 1.07; NanoBRET Fold Response (1μM tracer): 1.19 |
| COc1ccccc1N1CCN(CCCCN2C(=O)c3ccc(CNC(=O)CCOCCOCCOCCOCCNC(=O)CCc4ccc5n4[B-](F)(F)[N+]4=C(c6ccc[nH]6)C=CC4=C5)cc3C2=O)CC1 [NAN-190-2-NB590] | 0.99 | 0.86 | – |
| O=C(CCc1ccc2n1[B-](F)(F)[N+]1=C(c3ccc[nH]3)C=CC1=C2)NCCOCCOCCNC(=O)OCCOCCN1CCN(C2=Nc3ccccc3Sc3ccccc32)CC1 [Quetiapine-a-2-NB590] | 0.90 | 0.95 | – |
| O=C(CCOCCOCCOCCOCCNC(=O)CCc1ccc2n1[B-](F)(F)[N+]1=C(c3ccc[nH]3)C=CC1=C2)NCCCN1CCN(C2=Nc3cc(Cl)ccc3Nc3ccccc32)CC1 [Clozapine-a-2-NB590] | – | – | NanoBRET Fold Response (CX3CR1, 0.1μM tracer): 1.08; NanoBRET Fold Response (CX3CR1, 1μM tracer): 1.07 |
| N#CN=C(NCCCOc1cccc(CN2CCCCC2)c1)NCCNC(=O)CCOCCOCCOCCOCCNC(=O)CCc1ccc2n1[B-](F)(F)[N+]1=C(c3ccc[nH]3)C=CC1=C2 [Aminopotentidine-2-NB590] | 1.00 | 1.05 | – |
| O=C(CCc1ccc2n1[B-](F)(F)[N+]1=C(c3ccc[nH]3)C=CC1=C2)NCc1ccc(C(=O)NCCOCCOCCNCC(O)COc2cccc3ccccc23)cc1 (stereo not shown) [Propranolol-3-NB590] | – | – | NanoBRET Fold Response (CX3CR1, 0.1μM): 1.08; NanoBRET Fold Response (CX3CR1, 1μM): 1.03 |
| O=C(CCc1ccc2n1[B-](F)(F)[N+]1=C(c3ccc[nH]3)C=CC1=C2)NCc1ccc(C(=O)NCCOCCC(=O)N[C@@H]2CC[C@@]3(O)[C@H]4Cc5ccc(O)c6c5[C@@]3(CCN4CC3CC3)[C@H]2O6)cc1 [Naltrexone-3-NB590] | 1.32 | 0.81 | – |
| COc1ccccc1N1CCN(CCCCN2C(=O)c3ccc(CNC(=O)CCOCCNC(=O)c4ccc(CNC(=O)CCc5ccc6n5[B-](F)(F)[N+]5=C(c7ccc[nH]7)C=CC5=C6)cc4)cc3C2=O)CC1 [NAN-190-3-NB590] | 0.90 | 1.01 | – |
| Cc1cc2c(s1)Nc1ccccc1N=C2N1CCN(CCCNC(=O)CCOCCOCCOCCOCCNC(=O)CCc2ccc3n2[B-](F)(F)[N+]2=C(c4ccc[nH]4)C=CC2=C3)CC1 [Olanzapine-a-2-NB590] | 1.03 | 0.97 | – |
| CCCn1c(=O)c2[nH]c(-c3ccc(OCC(=O)NCCNC(=O)CCOCCNC(=O)c4ccc(CNC(=O)CCc5ccc6n5[B-](F)(F)[N+]5=C(c7ccc[nH]7)C=CC5=C6)cc4)cc3)nc2n(CCC)c1=O [XAC-3-NB590] | 0.87 | 0.83 | – |
| CN(CCC=C1c2ccccc2CCc2ccccc21)C(=O)CCOCCOCCOCCOCCNC(=O)CCc1ccc2n1[B-](F)(F)[N+]1=C(c3ccc[nH]3)C=CC1=C2 [Amitriptyline-e-2-NB590] | – | – | NanoBRET Fold Response (tracer at 1μM): 0.99 |
| COc1ccc2c(n1)c(CCNC(C)=O)cn2CCNC(=O)CCc1ccc2n1[B-](F)(F)[N+]1=C(c3ccc[nH]3)C=CC1=C2 [Azamelatonin-1-NB590] | – | – | NanoBRET Fold Response (0.1μM tracer): 0.93; NanoBRET Fold Response (1μM tracer): 1.05 |
